# Results taken from patent US20170226139A1, “CRYSTALLINE SALTS OF (Z)-O-OCTADEC-9-EN-1-YL O,O-DIHYDROGEN PHOSPHOROTHIOATE” (priority 2013, published 2017).
# Entries after “also recorded” stand apart in the source; their conditions may differ. Read-outs that look alike come from different tables or passages of the source.
# Key:
# [1] = test system: lysophosphatidic acid receptor (LPAR); assay: Calcium-mobilization assay, overall statements for all species and LPAR subtypes tested; assay type: cell-based
# Description: The compound was medicinally designed as an LPA analog with the goal of decreasing the otherwise rapid metabolism of LPA itself. […] These receptors are ubiquitous by tissue and in those eukaryotes investigated. […] Thus, the mechanism of drug action for GI-ARS protection is activation of the transmembrane G protein-coupled lysophosphatidic acid receptor (LPAR) and, more specifically, the LPAR2 GPCR subtype. The primary pharmacodynamics is that LPAR2 activation leads to a cascade of intracellular events that switch cells from an apoptotic to a repair/regenerative pathway.
# We investigated structure-activity relationships across species, LPAR subtypes and between Rx100 and two known process impurities encountered in manufacture: Rx103 (‘E’ isomer) and Rx200 (oleyl phosphate and impurity, which can be an Rx100 degradant along with oleyl alcohol). Rx100, Rx103, Rx200 and native LPA were investigated at different human LPAR subtypes. In addition, the activity of these compounds was evaluated at LPA2 receptors from the rhesus, rat and mouse species. Human LPA1/2/3 subtypes were transfected into mouse embryonic fibroblasts (MEF) or rat hepatoma cells (RH7777)—both of which are normally non-responsive or null to LPA. Human LPA4 was transfected into Chinese hamster ovary (CHO) cells and LPA5 into the B103 neuroblastoma cell line. […] The B103 rat neuroblastoma cell line is endogenously nonresponsive to LPA but expresses heterologous LPA5 receptors well. […] LPAR activation elicits a G-protein-mediated transient rise in intracellular calcium level that is proportional to the concentration of LPA applied. The intracellular calcium level was quantified by the calcium-selective fluorescent indicator FURA-2 (e.g., increased intracellular calcium surge=increased fluorescence).
# Oleyl alcohol is, of course, a common component of many non-toxic ingested or dermally applied substances.
# [2] = test system: Cultured human peripheral lymphocytes cells; assay type: cell-based; details: for Aberrant Cells Mean % −g: excluding gaps only; for Aberrant Cells Mean % +g: plus cells with gaps only
# Experimental: Cultured human peripheral lymphocytes cells were incubated in vitro with Rx100.Lysine for 3 hours with and without S9 mix and for 24 hours without S9 mix. For Rx100.Lysine, concentrations ranging from 3.39 to 500 μg/mL were examined in both treatment conditions. Adjusting for purity, the concentration ranges were 3.06 to 452 μg/mL. […] This increase was just above the historical vehicle control range (0 to 2.0%) for 3 hour treatment without metabolic activation. Thus the response observed is a weak positive and of questionable biological significance cytotoxicity was present just below the acceptable limit of 50±5% for this assay.
# Thus, Rx100.Lysine was considered negative for inducing chromosome aberrations, polyploidy and endoreduplication, in cultured human peripheral blood lymphocytes following a 3 hour treatment with and a 24 treatment without metabolic activation.
# [3] = test system: bone marrow cells (micronucleated PCEs); assay: In vivo rat bone marrow micronucleus assay; parameters: species or system Sprague-Dawley rats
# Experimental: A GLP-compliant rat micronucleus study was performed using male Sprague-Dawley rats (n=5/group) administered single subcutaneous doses of Rx100.lysine at 0 (0.5% sterile water for injection with 10 mM L-histidine), 125, 250, and […] (doses corrected for purity were 113, 225 and 452 mg/kg). One additional group received the positive control material (cyclophosphamide). Five animals per group were sacrificed 24 hours postdose; five animals from the vehicle and high dose group were sacrificed 48 hours postdose. Following sacrifice, bone marrow cells were collected from the femur. 2000 PCEs per animal were analyzed for the frequency of micronuclei. […] The materials were also shown to be homogenous (relative standard deviation [RSD] of 0.7 to 0.9%). […] Thus, Rx100.Lysine was considered to be negative in the micronucleus assay.
# Male Sprague-Dawley rats = assay: Respiratory system safety pharmacology (plethysmograph); assay type: in vivo
# Experimental: Male Sprague-Dawley rats (n=6/group) were administered Rx100.lysine as a single oral (gavage) doses of 0 (10 mM histidine in sterile water for injection, USP), 1.81, 6.33, and 18.1 mg/kg and monitored for respiratory function. Animals were placed in a plesthymograph and monitored at pre-dose and for consecutive 30 minute averages beginning 30 minutes postdose through 6 hours postdose and again at 24 hours postdose. Parameters evaluated included tidal volume, respiratory rate and minute volume. […] It was concluded that there were no adverse effects on the respiratory system in rats at doses of 1.81 mg/kg.
# [4] = 3-hour treatment with metabolic activation, 84.0 μg/mL
# [5] = 3-hour treatment with metabolic activation, 120 μg/mL
# [6] = 3-hour treatment with metabolic activation, 172 μg/mL
# [7] = 3-hour treatment without metabolic activation, 120 μg/mL
# [8] = 3-hour treatment without metabolic activation, 245 μg/mL
# [9] = 3-hour treatment without metabolic activation, 350 μg/mL
# [10] = 24-hour treatment without metabolic activation, 41.2 μg/mL
# [11] = 24-hour treatment without metabolic activation, 84.0 μg/mL
# [12] = 24-hour treatment without metabolic activation, 120 μg/mL
# [13] = 125 mg/kg single subcutaneous dose, harvest 24 hour
# [14] = 250 mg/kg single subcutaneous dose, harvest 24 hour
structure (smiles),measurement,setting,value
"CCCCCCCC/C=C\CCCCCCCCOP(O)(O)=S [Rx100, (Z)—O-octadec-9-en-1-yl O,O-dihydrogen phosphorothioate]",LPAR activation,[1],pan lysophosphatidic acid receptor (LPAR) agonist; also recorded: substantially more in vitro activity
"CCCCCCCC/C=C\CCCCCCCCOP(O)(O)=S [Rx100.L-Lysine, (Z)—O-octadec-9-en-1-yl O,O-dihydrogen phosphorothioate]",Cytotoxicity (% of Control),[2]; [4],77 % of Control
same,Endoreduplicate Mean %,[2]; [4],0.0%
same,Polyploidy Mean %,[2]; [4],0.0%
same,Aberrant Cells Mean % −g,[2]; [4],0.0%
same,Aberrant Cells Mean % +g,[2]; [4],1.5%
same,Cytotoxicity (% of Control),[2]; [5],65 % of Control
same,Endoreduplicate Mean %,[2]; [5],0.0%
same,Polyploidy Mean %,[2]; [5],0.0%
same,Aberrant Cells Mean % −g,[2]; [5],0.5%
same,Aberrant Cells Mean % +g,[2]; [5],2.5%
same,Cytotoxicity (% of Control),[2]; [6],68 % of Control
same,Endoreduplicate Mean %,[2]; [6],0.0%
same,Polyploidy Mean %,[2]; [6],0.0%
same,Aberrant Cells Mean % −g,[2]; [6],0.5%
same,Aberrant Cells Mean % +g,[2]; [6],3.0%
same,Endoreduplicate Mean %,[2]; [7],0.0%
same,Polyploidy Mean %,[2]; [7],0.5%
same,Aberrant Cells Mean % −g,[2]; [7],0.5%
same,Aberrant Cells Mean % +g,[2]; [7],1.0%
same,Endoreduplicate Mean %,[2]; [8],0.0%
same,Polyploidy Mean %,[2]; [8],1.5%
same,Aberrant Cells Mean % −g,[2]; [8],3.0%
same,Aberrant Cells Mean % +g,[2]; [8],6.0%
same,Endoreduplicate Mean %,[2]; [9],0.0%
same,Polyploidy Mean %,[2]; [9],3.0%
same,Aberrant Cells Mean % −g,[2]; [9],6.0%
same,Aberrant Cells Mean % +g,[2]; [9],8.5%
same,Endoreduplicate Mean %,[2]; [10],0.0%
same,Polyploidy Mean %,[2]; [10],0.0%
same,Aberrant Cells Mean % −g,[2]; [10],0.5%
same,Aberrant Cells Mean % +g,[2]; [10],3.0%
same,Endoreduplicate Mean %,[2]; [11],0.0%
same,Polyploidy Mean %,[2]; [11],0.0%
same,Aberrant Cells Mean % −g,[2]; [11],2.0%
same,Aberrant Cells Mean % +g,[2]; [11],5.5%
same,Endoreduplicate Mean %,[2]; [12],0.0%
same,Polyploidy Mean %,[2]; [12],1.0%
same,Aberrant Cells Mean % −g,[2]; [12],0.5%
same,Aberrant Cells Mean % +g,[2]; [12],4.5%
same,Genotoxic Effects,[2]; 3 hour treatment with S9 and 24 hour treatment without S9,"Genotoxic Effects: Negative for inducing chromosome aberrations, polyploidy and endoreduplication following a 3 hour treatment"
same,"chromosome aberrations, polyploidy and endoreduplication","[2]; 3 hours with or 24 hours without metabolic activation, listed as Rx100.Lysine","No increase in structural or numerical aberrations, polyploidy or endoreduplication; also recorded: negative"
same,cells with chromosome aberrations,"[2]; 3 hours without metabolic activation, increase only at 316 μg/mL, listed as Rx100.Lysine",small but statistically significant increase; also recorded: weakly positive
same,cytotoxicity,"[2]; highest concentration tested, 3-hour exposure",Cytotoxicity was observed
same,Cytotoxic Effect,"[2]; study summary, primary human lymphocytes",Cytotoxic Effect: None
same,Mean % MNPC (±SD) Male,[3]; [13],0.04%
same,Mean Ratio PCE:NCE (±SD) Male,[3]; [13],0.55
same,Mean % MNPC (±SD) Male,[3]; [14],0.07%
same,Mean Ratio PCE:NCE (±SD) Male,[3]; [14],0.59
same,Mean Ratio PCE:NCE (±SD) Male,"[3]; 500 mg/kg single subcutaneous dose, harvest 48 hour",0.36
same,Toxic/Cytotoxic Effects,"[3]; all doses of the test article, statistically significant decreases in the PCE:NCE ratios","Toxic/Cytotoxic Effects: Rx100.Lysine was cytotoxic to the bone marrow (i.e., statistically significant decreases in the PCE:NCE ratios)"
same,micronucleated PCEs,"[3]; any dose, 24 hour point, single SC dose",no increase in micronucleated PCEs
same,clinical signs,[3]; high dose animals at 48 hours postdose,"hunched posture, hypoactivity and irregular respiration"
same,micronucleated PCEs,"[3]; high dose animals, 48-hour time point, not considered biologically relevant",statistically significant increase
same,"micronucleus assay, overall result","[3]; rat, in vivo",negative
same,effects on respiratory parameters,Male Sprague-Dawley rats; 1.81 mg/kg,No statistically significant or biologically meaningful effects
same,increase in respiratory rates,Male Sprague-Dawley rats; 6.33 mg/kg,68%
same,reduction in tidal volume,Male Sprague-Dawley rats; 6.33 mg/kg,29%
same,respiratory values 24 hours post dose,Male Sprague-Dawley rats; 6.33 mg/kg,essentially normal
same,increase in respiratory rates,Male Sprague-Dawley rats; 18.1 mg/kg,65%
same,reduction in tidal volume,Male Sprague-Dawley rats; 18.1 mg/kg,32%
same,respiratory values 24 hours post dose,"Male Sprague-Dawley rats; 18.1 mg/kg, reduced in magnitude",still showed effects
same,dose with no adverse effects on the respiratory system,"Male Sprague-Dawley rats; male, Sprague-Dawley, rat, in vivo, oral, 24 h",1.81 mg/kg
